Source: US6372919B1 (DOV Pharmaceutical, Inc., priority 2001, dated 2002)

Experiments:
[1] = biological target: T1, serotonin transporter binding site, rat forebrain membranes (Rattus norvegicus, UniProt P31652); assay: Serotonin Transporter Binding Assay ([3H]-citalopram); conditions: comparison of Table 2 Ki values
T1 construct: The receptor source was rat forebrain membranes; from tissue; host or cells: rat forebrain membranes
Experimental: Reactions were carried out in 50 mM TRIS-HCl (pH 7.4) containing 120 mM NaCl and 5 mM KCl at 25° C. for 60 minutes. The reaction was terminated by rapid vacuum filtration onto glass fiber filters. Radioactivity trapped in the filters was determined using liquid scintillation spectrometry and compared to control values in order to ascertain any interactions of test compound with the serotonin transporter binding site.

[2] = biological target: norepinephrine uptake site (norepinephrine transporter), rat forebrain membranes (Rattus norvegicus, UniProt Q9WTR4); conditions: comparison of Table 1 Ki values
Sequence of norepinephrine uptake site (norepinephrine transporter), rat forebrain membranes (Q9WTR4 1-597): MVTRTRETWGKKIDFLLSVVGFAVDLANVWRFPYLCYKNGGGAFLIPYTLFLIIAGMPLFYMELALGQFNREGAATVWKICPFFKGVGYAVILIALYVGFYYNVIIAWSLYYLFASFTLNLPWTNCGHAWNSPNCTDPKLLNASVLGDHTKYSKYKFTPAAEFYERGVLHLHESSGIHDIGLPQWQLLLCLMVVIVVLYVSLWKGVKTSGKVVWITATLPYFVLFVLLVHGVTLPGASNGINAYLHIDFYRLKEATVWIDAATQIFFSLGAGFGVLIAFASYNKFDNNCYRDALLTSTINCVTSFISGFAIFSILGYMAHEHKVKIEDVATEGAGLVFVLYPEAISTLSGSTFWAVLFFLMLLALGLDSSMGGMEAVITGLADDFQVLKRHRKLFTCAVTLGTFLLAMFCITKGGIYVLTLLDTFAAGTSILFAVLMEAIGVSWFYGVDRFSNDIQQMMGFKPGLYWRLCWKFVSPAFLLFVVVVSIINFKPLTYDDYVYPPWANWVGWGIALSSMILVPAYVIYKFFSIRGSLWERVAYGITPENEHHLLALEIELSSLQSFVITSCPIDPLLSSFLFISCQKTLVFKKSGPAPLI
Experimental: Reactions were carried out in 50 mM TRIS-HCl (pH 7.4), containing 300 mM NaCl and 5 mM KCl at 0° C. to 4 ° C for 4 hours. The reaction was terminated by rapid vacuum filtration onto glass fiber filters. Radioactivity trapped in the filters was determined and compared to control values in order to ascertain the interactions of the test compound with the norepinephrine uptake site.

T1 sequence (P31652 whole entry): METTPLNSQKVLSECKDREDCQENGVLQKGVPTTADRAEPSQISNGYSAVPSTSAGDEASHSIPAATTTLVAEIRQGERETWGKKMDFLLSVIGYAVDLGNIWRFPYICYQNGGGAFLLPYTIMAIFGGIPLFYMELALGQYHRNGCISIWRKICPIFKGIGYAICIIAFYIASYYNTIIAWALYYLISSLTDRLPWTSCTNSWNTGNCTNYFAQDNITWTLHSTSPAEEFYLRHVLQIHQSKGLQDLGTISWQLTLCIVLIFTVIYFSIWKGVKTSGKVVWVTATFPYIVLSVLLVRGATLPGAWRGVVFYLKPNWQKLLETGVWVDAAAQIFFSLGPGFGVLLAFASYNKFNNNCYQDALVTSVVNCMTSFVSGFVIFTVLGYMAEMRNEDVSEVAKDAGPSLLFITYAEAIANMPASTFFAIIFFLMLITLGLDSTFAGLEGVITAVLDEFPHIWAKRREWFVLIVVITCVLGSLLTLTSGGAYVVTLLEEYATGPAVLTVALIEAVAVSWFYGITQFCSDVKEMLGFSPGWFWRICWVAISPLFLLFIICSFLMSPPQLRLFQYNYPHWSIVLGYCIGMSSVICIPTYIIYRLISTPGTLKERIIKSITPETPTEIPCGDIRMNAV

Cl.Clc1ccc([C@@]23CNC[C@@H]2C3)cc1Cl (single isomer, unassigned) [(+)-1-(3,4-dichlorophenyl)-3-azabicyclo[3.1.0]hexane hydrochloride]
affinity for the serotonin uptake site compared with (±)-1-(3,4-dichlorophenyl)-3-azabicyclo[3.1.0]hexane HCl [1]: significantly greater affinity
affinity for the norepinephrine uptake site compared with (±)-1-(3,4-dichlorophenyl)-3-azabicyclo[3.1.0]hexane HCl [2]: significantly greater affinity
